We go through 15 compounds from ChEMBL document CHEMBL2424597, “Diarylheptanoids with inhibitory effects on melanogenesis from the rhizomes of Curcuma comosa in B16 melanoma cells” (Bioorg Med Chem Lett, 2013).

Each structure is given as a SMILES string. Bounds are passed on as bounds.

Series [1] in a line: Cytotoxicity against mouse B16-4A5 cells assessed as cell viability at 10 uM after 70 hrs by WST-8 assay in presence of theophylline. It counts as cell-based. The conditions noted are these: read-out: Activity. On the technique in general: Formazan colour is commonly taken as a measure of viable cells.
Series [2] can be described thus: Antimelanogenic activity in mouse B16-4A5 cells assessed as inhibition of theophylline-induced melanin production after 72 hrs by spectrophotometry relative to control. Format: functional, cell-based. The conditions noted are these: B16-4A5, 72 h.
Series [3] addresses T1, Tyrosinase (Agaricus bisporus) (UniProt O42713).
T1 sequence (whole entry): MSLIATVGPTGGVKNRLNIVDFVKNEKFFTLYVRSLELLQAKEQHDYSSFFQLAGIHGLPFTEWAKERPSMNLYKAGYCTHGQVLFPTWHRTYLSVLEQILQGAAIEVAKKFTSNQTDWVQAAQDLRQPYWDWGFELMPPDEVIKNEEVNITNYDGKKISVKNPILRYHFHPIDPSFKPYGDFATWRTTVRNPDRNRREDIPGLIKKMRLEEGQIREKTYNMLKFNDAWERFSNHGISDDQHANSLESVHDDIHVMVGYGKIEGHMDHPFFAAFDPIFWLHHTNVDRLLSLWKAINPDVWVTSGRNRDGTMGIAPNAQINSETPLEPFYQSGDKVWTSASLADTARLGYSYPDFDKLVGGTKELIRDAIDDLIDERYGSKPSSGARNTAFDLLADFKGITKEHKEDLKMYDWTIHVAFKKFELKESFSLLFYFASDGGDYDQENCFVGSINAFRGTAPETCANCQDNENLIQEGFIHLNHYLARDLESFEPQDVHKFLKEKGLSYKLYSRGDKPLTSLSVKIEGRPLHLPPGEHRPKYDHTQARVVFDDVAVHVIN
Put plainly: Inhibition of mushroom tyrosinase at 10 uM.

Series [4] is described as follows: Antimelanogenic activity in mouse B16-4A5 cells assessed as inhibition of theophylline-induced melanin production at 10 uM after 72 hrs by spectrophotometry relative to control. It counts as functional. To be noted: B16-4A5, 72 h.
Series [5] in a line: Antimelanogenic activity in mouse B16-4A5 cells assessed as inhibition of theophylline-induced melanin production at 0.1 uM after 72 hrs by spectrophotometry relative to control. Format: functional. The conditions noted are these: B16-4A5, 72 h.
Series [6] is described as follows: Cytotoxicity against mouse B16-4A5 cells assessed as cell viability at 3 uM after 70 hrs by WST-8 assay in presence of theophylline. It counts as cell-based. The conditions noted are these: read-out: Activity.
The nature of series [7]: Antimelanogenic activity in mouse B16-4A5 cells assessed as inhibition of theophylline-induced melanin production at 3 uM after 72 hrs by spectrophotometry relative to control. It counts as functional. The conditions noted are these: B16-4A5, 72 h.
Series [8] is described as follows: Antimelanogenic activity in mouse B16-4A5 cells assessed as inhibition of theophylline-induced melanin production at 1 uM after 72 hrs by spectrophotometry relative to control. It counts as functional. The conditions noted are these: B16-4A5, 72 h.
A short description of series [9]: Antimelanogenic activity in mouse B16-4A5 cells assessed as inhibition of theophylline-induced melanin production at 0.3 uM after 72 hrs by spectrophotometry relative to control. The conditions noted are these: B16-4A5, 72 h. It counts as functional.

Regarding `O=C(CC/C=C/c1ccc(O)cc1)CCc1ccc(O)cc1`, in series [1], the viability at 70 h, 10 µM is 71.6%. The IC50 (usually the concentration that inhibits the measured activity by half) in [2] worked out at 1.24 µM. For the same compound, in [3], the inhibition – broadly, the drop in the measured response relative to a control, in per cent – was < 17%. For the same compound, the inhibition at 10 µM in series [4] is 57.1%. For the same compound, in series [5], the inhibition at 0.1 µM turned out to be 21.2%. Besides, the viability at 70 h, 3 µM in series [6] was > 91.9%. Moreover, in [7], the inhibition at 3 µM came to 61.4%. For the same compound, the inhibition at 1 µM in series [8] is 44.9%. The inhibition at 0.3 µM in [9] is 29.9%.

For the compound `COc1cc(CC[C@@H](O)C[C@@H](O)CCc2ccc(O)cc2)cc(OC)c1O`, the viability at 70 h, 10 µM in [1] was 92.3%. The inhibition in series [3] was < 17%. Besides, the inhibition at 10 µM in [4] was determined as 7.2%. Besides, the inhibition at 0.1 µM in [5] amounted to 11.5%. In [6], the viability at 70 h, 3 µM was found to be 95.2%. The inhibition at 3 µM in [7] turned out to be 25%. The inhibition at 1 µM in series [8] amounted to 23.1%. In [9], the inhibition at 0.3 µM was determined as 23.2%.

For `Oc1ccc(CC[C@@H](O)C[C@H](O)CCc2ccc(O)cc2)cc1` [(+)-HANNOKINOL], the viability at 70 h, 10 µM in [1] stood at 92.3%. Also, the IC50 in series [2] is > 10 µM. Further, the inhibition in series [3] was < 17%. Further, the inhibition at 10 µM in [4] came out at 21.9%. Further, the inhibition at 0.1 µM in series [5] was determined as 22%. Further, in series [6], the viability at 70 h, 3 µM came to 95.2%. For the same compound, the inhibition at 3 µM in series [7] is 23.1%. In addition, the inhibition at 1 µM in [8] stood at 15.7%. In series [9], the inhibition at 0.3 µM was found to be 20.3%.

As to `O=C(/C=C/C=C/c1ccc(O)c(O)c1)CCc1ccc(O)cc1`, the viability at 70 h, 10 µM in series [1] was found to be 92.3%. Further, the inhibition in [3] was < 17%. Moreover, the inhibition at 10 µM in series [4] was determined as 16.3%. Moreover, in series [5], the inhibition at 0.1 µM is 27.8%. Also, the viability at 70 h, 3 µM in series [6] is 95.2%. In [7], the inhibition at 3 µM is 23.4%. The inhibition at 1 µM in series [8] is 30.5%. Moreover, the inhibition at 0.3 µM in series [9] was 37.8%.

As to `O=C(/C=C/C=C/c1ccc(O)cc1)CCc1ccc(O)cc1`, the viability at 70 h, 10 µM in series [1] came to 92.3%. In addition, in [2], the IC50 stood at 1.99 µM. For the same compound, the inhibition in series [3] came to 34.3%. In series [4], the inhibition at 10 µM came to 68.4%. Further, the inhibition at 0.1 µM in [5] is 25.4%. Further, the viability at 70 h, 3 µM in series [6] turned out to be 95.2%. In series [7], the inhibition at 3 µM was 41.9%. Also, the inhibition at 1 µM in [8] is 53.4%. Further, the inhibition at 0.3 µM in series [9] is 31.7%.

For `COc1cc(CC[C@@H](O)CC/C=C/c2ccc(O)cc2)ccc1O`, in series [1], the viability at 70 h, 10 µM was determined as 76%. The IC50 in [2] was > 10 µM. The inhibition in [3] is < 17%. The inhibition at 10 µM in series [4] was determined as 37.8%. Besides, the inhibition at 0.1 µM in [5] was found to be 13.7%. Moreover, the viability at 70 h, 3 µM in [6] stood at 84.6%. The inhibition at 3 µM in series [7] is 27.2%. For the same compound, the inhibition at 1 µM in series [8] came to 28.9%. In addition, the inhibition at 0.3 µM in series [9] amounted to 8.9%.

For the compound `Oc1ccc(CC[C@H](O)C[C@H](O)CCc2ccc(O)c(O)c2)cc1`, in series [1], the viability at 70 h, 10 µM worked out at 71.6%. For the same compound, in series [3], the inhibition is < 17%. Moreover, in [5], the inhibition at 0.1 µM is -0.7%. The viability at 70 h, 3 µM in series [6] is > 91.9%. Further, the inhibition at 3 µM in series [7] was -23.7%. Moreover, the inhibition at 1 µM in series [8] is -10.9%. For the same compound, in [9], the inhibition at 0.3 µM is -3.7%.

Take `Oc1ccc(/C=C/CC[C@@H](O)CCc2ccc(O)cc2)cc1`: the viability at 70 h, 10 µM in [1] was determined as 93%. Besides, in series [2], the half-inhibitory concentration (IC50) turned out to be 0.36 µM. Moreover, the inhibition in series [3] was 25.5%. Moreover, the inhibition at 10 µM in [4] worked out at 90.5%. Besides, the inhibition at 0.1 µM in [5] was 27.7%. Also, in series [6], the viability at 70 h, 3 µM turned out to be 95.2%. For the same compound, the inhibition at 3 µM in series [7] is 79.3%. Also, the inhibition at 1 µM in [8] turned out to be 67.3%. Also, the inhibition at 0.3 µM in [9] was determined as 47.5%.

Consider `CC(=O)O[C@H](CCc1ccc(O)cc1)C[C@@H](CCc1ccc(O)c(O)c1)OC(C)=O`, for which the viability at 70 h, 10 µM in [1] is 92.3%. The half-inhibitory concentration (IC50) in series [2] is > 10 µM. For the same compound, the inhibition in [3] was < 17%. For the same compound, the inhibition at 10 µM in series [4] was 27.3%. For the same compound, the inhibition at 0.1 µM in series [5] was 3.6%. Also, the viability at 70 h, 3 µM in [6] was 95.2%. In series [7], the inhibition at 3 µM was 7.3%. Moreover, the inhibition at 1 µM in series [8] is 8.1%. In addition, in [9], the inhibition at 0.3 µM stood at 6.3%.

As to `O=C(CCc1ccc(O)cc1)C[C@@H](O)CCc1ccc(O)cc1`, the inhibition in [3] is < 17%.

Turning to `COc1cc(CC[C@H](O)C[C@H](O)CCc2cc(OC)c(O)c(OC)c2)ccc1O`, the viability at 70 h, 10 µM in series [1] worked out at 92.3%. The IC50 in series [2] worked out at 3 µM. Also, the inhibition in series [3] is < 17%. For the same compound, in series [4], the inhibition at 10 µM amounted to 34.4%. Besides, the inhibition at 0.1 µM in series [5] is 35.4%. In [6], the viability at 70 h, 3 µM was determined as 95.2%. Besides, the inhibition at 3 µM in [7] worked out at 50.3%. Also, the inhibition at 1 µM in series [8] is 38.4%. The inhibition at 0.3 µM in series [9] came to 43.2%.

`CC(=O)O[C@H](CCc1ccc(O)c(O)c1)C[C@H](O)CCc1ccc(O)c(O)c1`: the viability at 70 h, 10 µM in series [1] came to 92.3%. Moreover, the inhibition in series [3] was < 17%. Moreover, in series [4], the inhibition at 10 µM was found to be 5.5%. The inhibition at 0.1 µM in series [5] is -1.6%. For the same compound, in [6], the viability at 70 h, 3 µM came to 95.2%. The inhibition at 3 µM in series [7] amounted to 4.5%. Also, the inhibition at 1 µM in series [8] is -5.7%. For the same compound, the inhibition at 0.3 µM in series [9] is -9.9%.

On to `Oc1ccc(CC[C@@H](O)C[C@H](O)CCc2ccc(O)c(O)c2)cc1`, for which, in series [1], the viability at 70 h, 10 µM turned out to be 92.3%. The inhibition in series [3] was < 17%. Further, the inhibition at 10 µM in series [4] is -18.9%. Also, the inhibition at 0.1 µM in series [5] amounted to 7%. Also, the viability at 70 h, 3 µM in [6] turned out to be 95.2%. Further, the inhibition at 3 µM in series [7] was 0.1%. In addition, the inhibition at 1 µM in [8] is -22.7%. Also, the inhibition at 0.3 µM in [9] was 8.9%.

With `COc1cc(CC[C@@H](O)CC(=O)CCc2ccc(O)cc2)ccc1O`, the viability at 70 h, 10 µM in series [1] came out at 92.3%. Moreover, in series [3], the inhibition was < 17%. The inhibition at 10 µM in series [4] is -24.9%. Besides, in [5], the inhibition at 0.1 µM turned out to be 4%. Further, in series [6], the viability at 70 h, 3 µM turned out to be 95.2%. Besides, the inhibition at 3 µM in [7] stood at 4.4%. Besides, in series [8], the inhibition at 1 µM was found to be 16.6%. Moreover, in series [9], the inhibition at 0.3 µM is -11.9%.

As to `CC(=O)O[C@H](CCc1ccc(O)c(O)c1)C[C@H](O)CCc1ccc(O)cc1`, the viability at 70 h, 10 µM in series [1] is 92.3%. The half-inhibitory concentration (IC50) in [2] was found to be 4.91 µM. Besides, in [3], the inhibition is < 17%. Besides, in series [4], the inhibition at 10 µM was determined as 59.9%. Also, in series [5], the inhibition at 0.1 µM was found to be 15.4%. Moreover, the viability at 70 h, 3 µM in [6] came out at 95.2%. Further, the inhibition at 3 µM in [7] worked out at 21.8%. Besides, in series [8], the inhibition at 1 µM amounted to 27.3%. Besides, the inhibition at 0.3 µM in [9] was 15.1%.
